From US7666393B2, “Methods for assessing antiangiogenic agents” (Children's Medical Center Corporation, priority 2001, dated 2010)

Tests used:
CAM vascularization = details: in vivo; cited from earlier work
[1] = test system: Human peripheral blood mononuclear cells (PBMNC); assay: In vitro formation of colonies from human peripheral blood mononuclear cells (EPC differentiation assay); format: cell-based; details: medium with bFGF and VEGF, 6 days culture after addition
Procedure: Human peripheral blood mononuclear cells (PBMNC) were purified over Ficoll gradient and seeded onto non-treated plastic dish for 24 hr. Non. adherent cells were, transferred to a gelatin coated 48 well dish in medium containing basic fibroblast growth factor (BFGF) and VEGF. Angiostatin and endostatin were added to the medium 24 hours later and cells were cultured for additional 6 days. At the end of the experiment the colonies were fixed with ethanol, stained with methyl-methylene blue and counted (FIGS. 1A-C). […] There was no difference in the effects of angiostatin between the two concentrations used. […] Taken together, it appears that angiostatin and endostatin block the differentiation of EC from their circulating progenitors.

EPC [2] = assay: VEGF-induced mobilization of EPC in mice (PBMNC colonies from peripheral blood); format: in vivo
Procedure: PBMNC from 1 ml of peripheral mouse blood were plated in medium containing bFGF and VEGF (FIG. 2A). […] Similar results were obtained with peripheral blood from mice, which were injected with microencapsulated cells producing endostatin (approximately 0.5×10^6 cells per mice) (Joki et al., 2001) (FIG. 2D). In order to elevate the number of EPC in the blood, the mice received injection of 0.5×10^6 cells producing VEGF, that were micro-encapsulated similar to the endostatin producing cells (FIGS. 2B-C).
PBMNC from VEGF injected mice were further analyzed by immunostaining in order to confirm their identity. Blood-derived cells were stained positively for VEGF-R2 (Flk-1), CD-31, BS-1 (a lectin specifically expressed on mouse EC) and for von-Wilerband factor (F.VIII). Only a few cells were stained positively for CD-14, a marker for macrophages. […] Furthermore, this in vivo effect of endostatin can be seen only if the starting number of EPC in the blood is high as a result of the VEGF treatment.

EPC [3] = assay: Tumor-induced mobilization of EPC in SCID mice bearing HS-VF tumors; format: in vivo; details: 7 days
Procedure: Many tumors secrete high levels of VEGF that can promote differentiation and mobilization of EPC. To test the effects of endostatin on tumor-induced mobilization of EPC, SCID mice (5 per group) were first injected subcutaneously with human pancreatic tumor cells (HS-VF cell, 2×10^6 cells/mouse) overexpressing VEGF. Eight days later half of the mice were implanted with “Alzet” osmotic pumps releasing murine endostatin (8-12 mg/kg/day) and the other half with pumps releasing saline. SCID mice that were not injected with tumor cells or pumps (normal SCID mice) served as a control to measure the number of EPC. After seven days, mice were sacrificed and blood samples were collected.
PBMNC were purified over “Ficoll” gradient and cells corresponding to 0.5 ml of blood were placed in a “Cytospin” tube. The cells were loaded onto glass slides, fixed and immunostained with MECA-32 antibodies, that specifically detect murine EC. The staining was developed with FITC-labeled (green) secondary antibodies and cell nuclei were stained with DAPI (blue). The proportion of MECA-32 positive cells from total PBMNC was calculated and shown in the graph of FIG. 4A.
Control mice had 0.29% MECA-32 positive cells in the PBMNC preparation. […]

EPC [4] = assay: EPC in peripheral blood of cancer patients undergoing endostatin treatment (P1H12-positive cells); format: in vivo, human; details: for percentage of EPC: about 240 mg/m^3 daily
Procedure: Recombinant human Endostatin (rhEndostatin, Endostatin™ EntreMed, Inc, Rockville, Md.) is under investigation in clinical Phase I trials in patients with advanced, refractory cancers. Twenty eight patients, age ranging from 28 to 72 years old with various types of cancer such as breast, colorectal and soft tissue sarcoma, participated in a phase I clinical trial at the Dana Farber Cancer Institute in Boston. We obtained blood samples from 7 patients that were treated with endostatin. The response of EPC to rhEndostatin differed between patients in accordance with differing clinical courses. The first group consisted of 4 patients with slowly progressive, stable or decreasing cancers that were followed with samples for 130-250 days (FIG. 6A). The second group consisted of patients with faster progressing cancer unaffected by rhEndostatin administration. This group was followed during 30 days of endostatin treatment (FIG. 6B). PBMNC were purified from the blood over “Ficoll” gradient and cells corresponding to 0.5 or 1 ml of blood were placed in a “Cytospin” tube. The cells were loaded onto glass slides, fixed and immuno-stained with FITC-conjugated P1H12 antibodies. Cell nuclei were stained with DAPI. The number of P1H12-positive cells was calculated as percentage of total PBMNC. EPC percentage varied among patients and was between 1.8-3.5%. […] Patients from the first group were initially administered with daily intravenous injections of 60 mg/m^3 endostatin. […] The administration of endostatin was later changed to continuous infusion (60 mg/m^3/day).
The second group of patients were at the beginning of endostatin treatment (daily IVB injections of about to 240 mg/m^3). The initial amount of EPC in this group varied between 0.4-1.6%. […] In these patients only 2-3 measurements of EPC were available because of rapid disease progression. […] On the other hand, minor response or stable disease progression upon endostatin administration was associated with reduction in the number EPC in peripheral blood, whereas an increase in EPC was associated with rapid disease progression.

CO[C@@H]1[C@H](OC(=O)NC(=O)CCl)CC[C@]2(CO2)[C@H]1[C@@]1(C)O[C@@H]1CC=C(C)C [TNP-470, reference compound]
CAM vascularization (CAM vascularization): greatly inhibit

angiostatin
formation of PBMNC colonies ([1]; 2 μg/ml): completely blocked
formation of PBMNC colonies ([1]; 10 μg/ml): completely blocked
CAM vascularization (CAM vascularization): greatly inhibit

endostatin
formation of PBMNC colonies ([1]; 2 μg/ml): the number of colonies grew but the colonies were small and contained small round cells
formation of PBMNC colonies ([1]; 10 μg/ml): significantly lower than the control experiment
colonies from PBMNC of 1 ml peripheral mouse blood (EPC [2]; mice injected with microencapsulated cells producing endostatin only (approx. 0.5×10^6 cells per mouse), 7 days in culture): no viable cell-containing colonies could be detected
colonies from PBMNC of peripheral mouse blood (EPC [2]; mice received VEGF producing cells together with endostatin producing cells (0.5×10^6 alginate encapsulated cells of each)): only a few, small and round cell-containing colonies
proportion of MECA-32 positive cells from total PBMNC (EPC [3]; Alzet pumps releasing murine endostatin 8-12 mg/kg/day, saline pumps approx. 2.5%, control mice 0.29%): 0.67%
gated Flk-1 positive cells in the peripheral blood (FACS) (EPC [3]; pumps releasing murine endostatin 8-12 mg/kg/day, saline 0.625+/−0.19%, normal mice 0.22+/−0.04%): 0.305+/−0.05%
number of EPC (P1H12-positive cells, percentage of total PBMNC) (EPC [4]; one patient of the first group, continuous infusion 60 mg/m^3/day, 130 days): not increased
percentage of EPC (EPC [4]; patient 13, faster progressing cancer, increased from 0.4% during 15 days of administration): 3.8%
percentage of EPC (EPC [4]; patient #11, faster progressing cancer, increased from 1.6% during 30 days of administration): 5.3%
EPC percentage (EPC [4]; patient #12, faster progressing cancer, daily IVB injections of about 240 mg/m^3, first 15 days): did not change significantly
number of EPC (P1H12-positive cells, percentage of total PBMNC) (EPC [4]; patients #1, #2 and #3, continuous infusion 60 mg/m^3/day): further lowered
number of EPC (P1H12-positive cells, percentage of total PBMNC) (EPC [4]; patients #2 and #3, slowly progressing cancer, daily intravenous injections of 60 mg/m^3): gradually decreased
CAM vascularization (CAM vascularization): greatly inhibit

vascular endothelial growth factor [VEGF, reference compound]
colonies from PBMNC of peripheral mouse blood (EPC [2]; mice injected with 0.5×10^6 microencapsulated cells producing VEGF): Large number of colonies
